Test results from PubChem BioAssay (NCI).
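The compound was tested at five concentrations on cells cultured in 96-well plates, with a 48-hour exposure period. Here, GI50 denotes the concentration required for 50% inhibition of growth. TGI: concentration producing complete growth inhibition.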

How the values were obtained:
Experiment in all cases: NCI tumour cell line growth inhibition, 48 h
[1] = test system: TK-10 renal
[2] = test system: CAKI-1 renal
[3] = test system: U251 CNS
[4] = test system: HOP-62 NSCLC
[5] = test system: SK-MEL-2 melanoma
[6] = test system: MCF7 breast
[7] = test system: UACC-62 melanoma
[8] = test system: SW-620 colon
[9] = test system: IGROV1 ovarian
[10] = test system: OVCAR-3 ovarian
[11] = test system: COLO 205 colon
[12] = test system: NCI-H23 lung
[13] = test system: RXF 393 renal
[14] = test system: LOX IMVI melanoma
[15] = test system: UO-31 renal
[16] = test system: NCI-H226 lung
[17] = test system: HCC-2998 colon
[18] = test system: PC-3 prostate
[19] = test system: T-47D breast
[20] = test system: NCI-H460 lung
[21] = test system: MDA-MB-435
[22] = test system: SK-MEL-28 melanoma
[23] = test system: OVCAR-4 ovarian
[24] = test system: UACC-257 melanoma
[25] = test system: MALME-3M melanoma
[26] = test system: OVCAR-5 ovarian
[27] = test system: HCT-15 colon
[28] = test system: MOLT-4 leukemia
[29] = test system: M14 melanoma
[30] = test system: SF-268 CNS
[31] = test system: HCT-116 colon
[32] = test system: MDA-MB-231 breast
[33] = test system: EKVX NSCLC
[34] = test system: OVCAR-8 ovarian
[35] = test system: ACHN renal
[36] = test system: BT-549 breast
[37] = test system: DU-145 prostate
[38] = test system: HT29 colon
[39] = test system: SF-295 CNS
[40] = test system: KM12 colon
[41] = test system: CCRF-CEM leukemia
[42] = test system: 786-0 renal
[43] = test system: NCI/ADR-RES ovarian
[44] = test system: SNB-75 CNS
[45] = test system: A498 renal
[46] = test system: SNB-19 CNS
[47] = test system: SK-OV-3 ovarian
[48] = test system: SK-MEL-5 melanoma
[49] = test system: A549 NSCLC
[50] = test system: SF-539 CNS
[51] = test system: NCI-H522 lung
[52] = test system: K-562 leukemia
[53] = test system: HS 578T breast
[54] = test system: HL-60(TB) leukemia
[55] = test system: RPMI-8226 leukemia
[56] = test system: SN12C renal

## N#Cc1ccccc1C#C/C=C\C#Cc1ccc(OCCCNC(=O)c2cc3ccccc3[nH]2)cc1
[1]
  GI50: 15.7 µM
  TGI: 34 µM
[2]
  GI50: 20.2 µM
  TGI: 48 µM
[3]
  GI50: 10.7 µM
  TGI: 22.5 µM
[4]
  GI50: 14.9 µM
  TGI: 31.1 µM
[5]
  GI50: 20.5 µM
  TGI: 44.6 µM
[6]
  GI50: 33.4 µM
  TGI: > 100 µM
[7]
  GI50: 13.7 µM
  TGI: 28.4 µM
[8]
  GI50: 30.2 µM
  TGI: > 100 µM
[9]
  GI50: 14.1 µM
  TGI: 33.7 µM
[10]
  GI50: 18.2 µM
  TGI: 41.4 µM
[11]
  GI50: 15.9 µM
  TGI: 44.6 µM
[12]
  GI50: 24.2 µM
  TGI: 98.2 µM
[13]
  GI50: 21.4 µM
  TGI: 52.2 µM
[14]
  GI50: 11.5 µM
  TGI: 23.7 µM
[15]
  GI50: 17 µM
  TGI: 35.4 µM
[16]
  GI50: 13.8 µM
  TGI: 31.9 µM
[17]
  GI50: 74.9 µM
  TGI: > 100 µM
[18]
  GI50: 14.7 µM
  TGI: 45.2 µM
[19]
  GI50: 12.4 µM
  TGI: 29.7 µM
[20]
  GI50: 33.9 µM
  TGI: > 100 µM
[21]
  GI50: 19 µM
  TGI: 42.7 µM
[22]
  GI50: 32 µM
  TGI: > 100 µM
[23]
  GI50: 59 µM
  TGI: > 100 µM
[24]
  GI50: 23 µM
  TGI: > 100 µM
[25]
  GI50: 14 µM
  TGI: 34.8 µM
[26]
  GI50: 21.3 µM
  TGI: 48.4 µM
[27]
  GI50: 26.2 µM
  TGI: > 100 µM
[28]
  GI50: 5.23 µM
  TGI: 23.4 µM
[29]
  GI50: 21.8 µM
  TGI: > 100 µM
[30]
  GI50: 30.6 µM
  TGI: > 100 µM
[31]
  GI50: 14.8 µM
  TGI: 39.6 µM
[32]
  GI50: 13.3 µM
  TGI: 28.1 µM
[33]
  GI50: 17.1 µM
  TGI: 96.6 µM
[34]
  GI50: 16.2 µM
  TGI: 36.9 µM
[35]
  GI50: 16.9 µM
  TGI: 34.9 µM
[36]
  GI50: 20.2 µM
  TGI: > 100 µM
[37]
  GI50: 19.4 µM
  TGI: 78.9 µM
[38]
  GI50: 30.9 µM
  TGI: > 100 µM
[39]
  GI50: 16.1 µM
  TGI: 34.6 µM
[40]
  GI50: 16.3 µM
  TGI: 44.2 µM
[41]
  GI50: 4.6 µM
  TGI: 44.3 µM
[42]
  GI50: 16.1 µM
  TGI: 40.5 µM
[43]
  GI50: 23.5 µM
  TGI: > 100 µM
[44]
  GI50: 17.9 µM
  TGI: 42.6 µM
[45]
  GI50: 16.1 µM
  TGI: 36.5 µM
[46]
  GI50: 16.5 µM
  TGI: 39.7 µM
[47]
  GI50: 19.3 µM
  TGI: 54.5 µM
[48]
  GI50: 4.24 µM
  TGI: 20.2 µM
[49]
  GI50: 22.9 µM
  TGI: > 100 µM
[50]
  GI50: 15.4 µM
  TGI: 35.6 µM
[51]
  GI50: 13.9 µM
  TGI: 32.3 µM
[52]
  GI50: 3.2 µM
  TGI: 19 µM

## CCCN(CCC)c1ccc(CO)c(C)c1
[1]
  GI50: 13.8 µM
  TGI: 61 µM
[2]
  GI50: 38.8 µM
  TGI: > 100 µM
[53]
  GI50: 42.2 µM
  TGI: > 100 µM
[3]
  GI50: 74 µM
  TGI: > 100 µM
[4]
  GI50: > 100 µM
  TGI: > 100 µM
[5]
  GI50: 25.7 µM
  TGI: 78 µM
[6]
  GI50: > 100 µM
  TGI: > 100 µM
[7]
  GI50: 22.8 µM
  TGI: > 100 µM
[8]
  GI50: > 100 µM
  TGI: > 100 µM
[9]
  GI50: 57 µM
  TGI: > 100 µM
[10]
  GI50: 23 µM
  TGI: > 100 µM
[11]
  GI50: 19.4 µM
  TGI: 68.8 µM
[12]
  GI50: 35.4 µM
  TGI: > 100 µM
[13]
  GI50: 22.2 µM
  TGI: > 100 µM
[14]
  GI50: > 100 µM
  TGI: > 100 µM
[15]
  GI50: > 100 µM
  TGI: > 100 µM
[54]
  GI50: 21.6 µM
  TGI: 48.7 µM
[16]
  GI50: 9.4 µM
  TGI: 23.7 µM
[17]
  GI50: > 100 µM
  TGI: > 100 µM
[18]
  GI50: 17.4 µM
  TGI: 57.6 µM
[19]
  GI50: 13.9 µM
  TGI: 33.5 µM
[20]
  GI50: > 100 µM
  TGI: > 100 µM
[21]
  GI50: 76.8 µM
  TGI: > 100 µM
[22]
  GI50: > 100 µM
  TGI: > 100 µM
[23]
  GI50: 11.3 µM
  TGI: 25.3 µM
[24]
  GI50: 11.6 µM
  TGI: 67.3 µM
[25]
  GI50: 11.3 µM
  TGI: 94.4 µM
[26]
  GI50: 13.1 µM
  TGI: 44.2 µM
[27]
  GI50: 51.9 µM
  TGI: > 100 µM
[28]
  GI50: 26.8 µM
  TGI: > 100 µM
[29]
  GI50: > 100 µM
  TGI: > 100 µM
[30]
  GI50: 63.7 µM
  TGI: > 100 µM
[31]
  GI50: 26.9 µM
  TGI: > 100 µM
[32]
  GI50: 77.4 µM
  TGI: > 100 µM
[33]
  GI50: 28.4 µM
  TGI: > 100 µM
[34]
  GI50: 27.4 µM
  TGI: > 100 µM
[35]
  GI50: 81 µM
  TGI: > 100 µM
[36]
  GI50: 47.6 µM
  TGI: > 100 µM
[37]
  GI50: > 100 µM
  TGI: > 100 µM
[55]
  GI50: 18.4 µM
  TGI: 50 µM
[38]
  GI50: 90.2 µM
  TGI: > 100 µM
[39]
  GI50: > 100 µM
  TGI: > 100 µM
[40]
  GI50: > 100 µM
  TGI: > 100 µM
[41]
  GI50: 17.7 µM
  TGI: 59.9 µM
[42]
  GI50: > 100 µM
  TGI: > 100 µM
[43]
  GI50: > 100 µM
  TGI: > 100 µM
[44]
  GI50: 68.2 µM
  TGI: > 100 µM
[45]
  GI50: 1.09 µM
  TGI: 3.64 µM
[46]
  GI50: > 100 µM
  TGI: > 100 µM
[47]
  GI50: > 100 µM
  TGI: > 100 µM
[48]
  GI50: 18.9 µM
  TGI: 62.3 µM
[49]
  GI50: 83.3 µM
  TGI: > 100 µM
[50]
  GI50: > 100 µM
  TGI: > 100 µM
[56]
  GI50: 79.4 µM
  TGI: > 100 µM
[51]
  GI50: 19.3 µM
  TGI: 60.5 µM
[52]
  GI50: 27.4 µM
  TGI: > 100 µM
